Literature values as cited in US11162142B2, “BCR-ABL1 splice variants and uses thereof” (Quest Diagnostics Investments Incorporated, priority 2010, dated 2021).
Where a name gives a salt, the structure may show the parent alone. Read-outs that look alike come from different tables or passages of the source.

How the values were obtained:
[1] = system: patients with CML
[2] = system: CML; conditions: all stages of CML

Cc1ccc(NC(=O)c2ccc(CN3CCN(C)CC3)cc2)cc1Nc1nccc(-c2cccnc2)n1 [imatinib, imatinib mesylate]
Primary resistance (failure to achieve any hematologic response) rate ([1]; accelerated-phase CML): 9% | Secondary resistance (hematologic recurrence) rate ([1]; accelerated-phase CML): 32% | Primary resistance (failure to achieve any hematologic response) rate ([1]; blast-phase CML): 51% | Secondary resistance (hematologic recurrence) rate ([1]; blast-phase CML): 41% | Primary resistance (failure to achieve any hematologic response) rate ([1]; chronic-phase CML): 3% | Secondary resistance (hematologic recurrence) rate ([1]; chronic-phase CML): 22% | Effectiveness of monotherapy [2]: effective for all stages of CML
